Measurements published in US4355043A, “Novel derivatives of 3-aminopropanesulfonic acid having a reinforced activity on membrane” (Les Laboratoires Meram, priority 1979, dated 1982).
Where two headings read alike, the source gives them in different places.

How the values were obtained:
[1] = LD50 toxicity in the mouse (Table I; text); conditions: for change of LD50 of the cation against the reference salt: expressed as cation
[2] = tested on: convulsions caused by pentetrazol; assay: anti-convulsivant action on convulsions caused by pentetrazol; type: in vivo, mouse
Method: The compounds according to the invention also present an anti-convulsivant action on the convulsions caused in the mouse by pentetrazol: After administration of pentetrazol, the time of appearance of the convulsions and the time of appearance of death is measured, in the animals which previously received, by the intraperitoneal route, the product to be tested, comparatively to controls receiving only pentetrazol.

[3] = tested on: muscle fatigued by application of lactic acid; assay: test of the muscle fatigued by application of lactic acid; type: in vivo; conditions: comparison within the series
Source text: (§1) It is furthermore suitable for the manufacture of aqueous solutions.

[4] = mouse, in vivo, ip
[5] = tested on: erythrocyte membrane; assay: stabilising effect on the erythrocyte membrane (haemolysis in hypotonic medium and with heat); type: cell-based, rabbit
Source text: Nature (1970) 225, Mar. 21, 1150-1151.

[6] = in vivo; conditions: mouse, ip
[7] = rectal temperature (hypothermia); type: in vivo; conditions: rat
[8] = tested on: hypermotility by ethanol; assay: antagonism of the hypermotility caused by ethanol (Cott-Carlsson Engel Lindqvist test); type: in vivo, mouse; conditions: for antagonism of ethanol hypermotility / sedative activity, ranking: mouse, per os, comparison in words
Method: The motility of the mice placed in the actimeter is recorded immediately after this injection, every 5 minutes, for 60 minutes. The percentage of variation of the motility of the mice treated with ethanol with respect to the controls receiving water is determined, and of mice treated with the product to be tested and with ethanol with respect to mice receiving only ethanol.

[9] = tested on: narcosis by ethanol; assay: potentialization of narcosis by ethanol; type: in vivo; conditions: mouse, oral route, comparison within the series
Source text: as §1

[10] = rabbit red cells in vitro, hypotonic medium pH 7.4, 53° C., read-out: ED50, stabilising effect on the erythrocyte membrane
[11] = LD50 expressed in Mg++ or Li+, intraperitoneal route

Question: With [Cl-].[Cl-].[Mg+2] [magnesium chloride, reference compound] as the compound, how does the “LD50 expressed in Mg++ or Li+” value ([1]; mouse, intraperitoneal route) read?
Answer: Its value is 94 mg.

Question: Which “time of appearance of death” value ([2]; 315 mg/kg i.p.) does the source give for CC(=O)NCCCS(=O)(=O)O [Potassium acetylhomotaurinate, 3-acetylaminopropanesulfonate of potassium] here?
Answer: Its value is “increase, without reaching the level of significance”.

Question: What about the “time of appearance of the convulsions” value ([2]; 315 mg/kg i.p.) of the same compound?
Answer: Its value is “increase, without reaching the level of significance”.

Question: What about the “activity in the test of the muscle fatigued by lactic acid” value [3] of the same compound?
Answer: The value was “the most active”.

Question: What about the LD50 [4] of the same compound?
Answer: Its LD50 is 4120 mg/kg.

Question: What about the “LD50 expressed as cation” value [4] of the same compound?
Answer: The value was 733 mg cation/kg.

Question: What about the EC50 [5, 10] of the same compound?
Answer: The EC50 was 5 mM.

Question: Which LD50 ([6]; LD50, male mouse) does the source give for CC(=O)NCCCS(=O)(=O)[O-].[Li+] here?
Answer: Its LD50 is 4260 mg/kg.

Question: And the LD50 [6, 11]?
Answer: Its LD50 is 157 mg/kg.

Question: And the “change of LD50 of the cation against the reference salt” value ([1]; mouse, intraperitoneal route)?
Answer: The value was “significantly increased”.

Question: What about the EC50 ([5]; Oryctolagus cuniculus, Erythrocyte, pH 7.4, read-out: ED50, stabilising effect on the erythrocyte membrane) of the same compound?
Answer: The EC50 was 10 mM.

Question: Which “effect on rectal temperature” value ([7]; homotaurine by intraperitoneal route) does the source give for NCCCS(=O)(=O)O [Homotaurine, 3-aminopropanesulfonic acid] here?
Answer: Its value is “does not modify the rectal temperature”.

Question: What about the EC50 ([5]; Oryctolagus cuniculus, Erythrocyte, pH 7.4, rabbit red cells in vitro, hypotonic medium pH 7.4, 53° C., read-out: ED50, stabilising effect on the erythrocyte membrane) of the same compound?
Answer: Its EC50 is 15 mM.

Question: For CC(=O)NCCS(=O)(=O)O [Magnesium acetyltaurinate, reference compound], which “time of appearance of the convulsions” value ([2]; 1000 mg/kg i.p.) is on record?
Answer: The value was “significantly (xx)”.

Question: And the “time of appearance of death” value ([2]; 1000 mg/kg i.p., listed as Mg acetyltaurinate)?
Answer: The value was “significantly (xx)”.

Question: And the “antagonism of the hypermotility by ethanol, result” value (“antagonism … result” for short) ([8]; 100 mg per os)?
Answer: The value was “antagonism”.

Question: What about the “antagonism of the hypermotility by ethanol, significance” value (from here on “antagonism … significance”) ([8]; 100 mg per os) of the same compound?
Answer: The value was “not significant”.

Question: And the “antagonism … result” value ([8]; 200 mg per os)?
Answer: Its value is “antagonism”.

Question: And the “antagonism … significance” value ([8]; 200 mg per os)?
Answer: The value was “not significant”.

Question: And the “antagonism … result” value ([8]; 400 mg per os)?
Answer: The value was 0.

Question: Which “antagonism … result” value ([8]; 400 mg per os) does the source give for CC(=O)NCCS(=O)(=O)[O-].[Na+] [Sodium acetyltaurinate, reference compound] here?
Answer: Its value is 0.

Question: Which “time of appearance of convulsions” value ([2]; 800 mg/kg i.p.) does the source give for CC(=O)NCCCS(=O)(=O)O [Magnesium acetylhomotaurinate, magnesium N-acetylhomotaurinate] here?
Answer: The value was “significant”.

Question: And the LD50 ([6]; LD50, male mouse)?
Answer: The LD50 was 2570 mg/kg.

Question: And the LD50 [6, 11]?
Answer: The LD50 was 161 mg/kg.

Question: And the “change of LD50 of the cation against the reference salt” value ([1]; mouse, intraperitoneal route)?
Answer: The value was “significantly increased”.

Question: And the EC50 [5, 10]?
Answer: Its EC50 is 10 mM.

Question: What about the “antagonism … result” value ([8]; 80 mg per os) of the same compound?
Answer: Its value is “antagonism”.

Question: What about the “antagonism … result” value ([8]; 100 mg per os) of the same compound?
Answer: Its value is “antagonism”.

Question: What about the “antagonism … significance” value ([8]; 100 mg per os) of the same compound?
Answer: The value was “not significant”.

Question: What about the “antagonism … result” value ([8]; 200 mg per os) of the same compound?
Answer: Its value is “antagonism”.

Question: What about the “antagonism … result” value ([8]; 200 mg per os, listed as magnesium acetylhomotaurinate) of the same compound?
Answer: The value was “slightly less than that of the calcium salt”.

Question: And the “antagonism … result” value ([8]; 400 mg per os)?
Answer: The value was “antagonism”.

Question: And the “antagonism … result” value ([8]; 400 mg per os, listed as magnesium acetylhomotaurinate)?
Answer: Its value is “slightly less than that of the calcium salt”.

Question: With CC(=O)NCCCS(=O)(=O)O [Sodium acetylhomotaurinate, 3-acetylaminopropanesulfonate of sodium] as the compound, how does the “potentialization of narcosis by ethanol” value [9] read?
Answer: The value was “top of the series”.

Question: And the “time of appearance of death” value ([2]; 292 mg/kg i.p.)?
Answer: The value was “increase, without reaching the level of significance”.

Question: What about the “time of appearance of the convulsions” value ([2]; 292 mg/kg i.p.) of the same compound?
Answer: Its value is “increase, without reaching the level of significance”.

Question: What about the LD50 [4] of the same compound?
Answer: Its LD50 is “greater than 5 g/kg”.

Question: What about the EC50 [5, 10] of the same compound?
Answer: The EC50 was 5 mM.

Question: And the “antagonism … result” value ([8]; 400 mg per os)?
Answer: The value was “slight antagonism which appears at the 50th minute of observation”.

Question: And the “antagonism … significance” value ([8]; 400 mg per os)?
Answer: The value was “not significant”.

Question: What about the “antagonism … result” value ([8]; 400 mg per os, listed as Sodium acetyhomotaurinate) of the same compound?
Answer: Its value is “slight anta-”.

Question: And the “antagonism of ethanol hypermotility / sedative activity, ranking” value [8]?
Answer: The value was “least active”.

Question: For CC(=O)NCCCS(=O)(=O)O [Calcium acetylhomotaurinate, calcium N-acetylhomotaurinate], which “ranking of hypothermic activity” value [7] is on record?
Answer: The value was “more active than that of magnesium”.

Question: What about the “time of appearance of death” value ([2]; 400 mg/kg i.p.) of the same compound?
Answer: Its value is “significant antagonism (xx)”.

Question: And the “time of appearance of convulsions” value ([2]; 800 mg/kg i.p.)?
Answer: Its value is “significant”.

Question: And the “time of appearance of death” value ([2]; 800 mg/kg i.p.)?
Answer: The value was “significant antagonism (xx)”.

Question: And the “time of appearance of the convulsions” value ([2]; 1000 mg/kg i.p.)?
Answer: Its value is “very significant (xxx)”.

Question: And the “anti-convulsivant activity, comparison” value ([2]; mouse, i.p., in words)?
Answer: The value was “greater than that of Mg acetylhomotaurinate”.

Question: What about the LD50 [4] of the same compound?
Answer: Its LD50 is 1870 mg/kg.

Question: And the “LD50 expressed as cation” value [4]?
Answer: Its value is 186 mg cation/kg.

Question: What about the EC50 [5, 10] of the same compound?
Answer: The EC50 was 1 mM.

Question: What about the “antagonism … result” value ([8]; 80 mg per os) of the same compound?
Answer: The value was 0.

Question: And the “antagonism … result” value ([8]; 100 mg per os)?
Answer: The value was “antagonism”.

Question: What about the “antagonism … significance” value ([8]; 100 mg per os) of the same compound?
Answer: Its value is “xxx”.

Question: And the “antagonism … result” value ([8]; 200 mg per os)?
Answer: Its value is “antagonism”.

Question: What about the “antagonism … significance” value ([8]; 200 mg per os) of the same compound?
Answer: Its value is “xx”.

Question: What about the “antagonism … result” value ([8]; 200 mg per os, listed as calcium acetylhomotaurinate) of the same compound?
Answer: The value was “significant antagonism”.

Question: And the “antagonism … result” value ([8]; 400 mg per os)?
Answer: The value was “antagonism”.

Question: What about the “antagonism … result” value ([8]; 400 mg per os, listed as calcium acetylhomotaurinate) of the same compound?
Answer: Its value is “significant antagonism”.

Question: And the “antagonism … result” value ([8]; 800 mg per os)?
Answer: The value was “antagonism”.

Question: What about the “antagonism … significance” value ([8]; 800 mg per os) of the same compound?
Answer: Its value is “xx (shorter)”.

Question: And the “antagonism … result” value ([8]; 800 mg per os, listed as calcium acetylhomotaurinate)?
Answer: The value was “this effect is confirmed at the dose of 800 mg/kg but does not appear to be superior to that recorded at 400 mg”.

Question: And the “antagonism of ethanol hypermotility / sedative activity, ranking” value ([8]; listed as Ca acetylhomotaurinate)?
Answer: The value was “greater than that of Mg acetylhomotaurinate”.

Question: What does the source list for CC(=O)NCCS(=O)(=O)O [Calcium acetyltaurinate, reference compound]?
Answer: time of appearance of death ([2]; 1000 mg/kg i.p., listed as Ca acetyltaurinate): significantly (x); LD50 by oral route ([1]; oral route, footnote of Table I): 13090 mg/kg; antagonism of the hypermotility by ethanol, result ([8]; 80 mg per os): 0; antagonism of the hypermotility by ethanol, result ([8]; 800 mg per os): antagonism; antagonism of the hypermotility by ethanol, significance ([8]; 800 mg per os): x to xx according
